Data on 22 molecules can be found in ChEMBL document CHEMBL3044534, “Antitumor and antileishmanial evaluation of novel heterocycles derived from quinazoline scaffold: a molecular modeling approach” (2013).

What all share (type): functional
One test concerns NCI-H460. Briefly: Growth inhibition of Homo sapiens (human) NCI-H460 cells after 48 hr by SRB assay. To be noted: NCI-H460, 48 h. Background: Sulforhodamine B stains cellular protein and so reports cell mass.
In test [1] the test system is Leishmania donovani. Briefly: Antileishmanial activity against axenic amastigotes of Leishmania donovani assessed as growth inhibition at 50 uM. To be noted: read-out: GI.
The next test has as its system SF-268. Briefly: Growth inhibition of Homo sapiens (human) SF268 cells after 48 hr by SRB assay. As to conditions: SF-268, 48 h.
The next test concerns MCF7. Briefly: Growth inhibition of Homo sapiens (human) MCF7 cells after 48 hr by SRB assay. As to conditions: MCF7, 48 h.
Test [2] concerns Leishmania donovani. Description: Antileishmanial activity against axenic amastigotes of Leishmania donovani assessed as growth inhibition.
For test [3], the system named is Leishmania donovani. Briefly: Antileishmanial activity against axenic amastigotes of Leishmania donovani assessed as growth inhibition at 1 uM. To be noted: read-out: GI.

Regarding `Cc1nc2ccccc2c(=O)n1NC(=O)CCl`, the GI50 in the test with NCI-H460 was found to be 23.2 µM; in the test with SF-268, 18.4 µM; in the test on MCF7, 50.1 µM. Also, in the test with Leishmania donovani [1], the inhibition of growth at 50 µM is 60%.
For the molecule `Cc1nc2ccccc2c(=O)n1NC(=S)Nc1ccccc1`, the GI50 in the test with NCI-H460 turned out to be 78.6 µM; in the test with SF-268 it was 56.8 µM; in the test with Leishmania donovani [2], 12 µM; with MCF7, 64.9 µM. In the test on Leishmania donovani [1], the inhibition of growth at 50 µM was determined as 98%.
The like results for `Cc1nc2ccccc2c(=O)n1-n1c(C)cc(=O)n(-c2ccccc2)c1=S` were, in that order, 43.6 µM, 36.8 µM, 12 µM, 22.9 µM and 66%.
`Cc1nc2ccccc2c(=O)n1NC(=O)/C(Cl)=C/c1ccccc1`: the GI50 turned out to be 0.02 µM in the test on NCI-H460, 0.05 µM in the test on SF-268, 26 µM in the test on Leishmania donovani [2] and 0.03 µM in the test on MCF7. For the same molecule, the inhibition of growth at 50 µM in the test on Leishmania donovani [1] turned out to be 80%.
For `COc1ccc(/C=C(\Cl)C(=O)Nn2c(C)nc3ccccc3c2=O)cc1`, the GI50 turned out to be 0.6 µM in the test with NCI-H460, 0.8 µM with SF-268, 28 µM with Leishmania donovani [2] and 0.9 µM in the test with MCF7. For the same molecule, in the test on Leishmania donovani [1], the inhibition of growth at 50 µM was determined as 84%.
Regarding `Cc1nc2ccccc2c(=O)n1NC(=O)/C(Cl)=C/c1ccc(Cl)cc1`, the 50% growth inhibitory concentration (GI50) is 38.9 µM in the test with NCI-H460, 50.8 µM in the test with SF-268, 18 µM in the test on Leishmania donovani [2] and 70.6 µM with MCF7. In the test on Leishmania donovani [1], the inhibition of growth at 50 µM was 50%.
For `Cc1nc2ccccc2c(=O)n1NC1=CSC(=C(C#N)C#N)N1c1ccccc1` the same measures were 32.6 µM, 60.4 µM, 18 µM, 40.6 µM and 44%.
As to `Cc1nc2ccccc2c(=O)n1NC(=O)C1Nc2ccccc2C1=O` (centres undefined), the GI50 with NCI-H460 stood at 14.1 µM; with SF-268, 20.3 µM; in the test with Leishmania donovani [2] it was 13 µM; with MCF7, 11.9 µM. For the same molecule, in the test with Leishmania donovani [1], the inhibition of growth at 50 µM was 92%.
In the case of `CC1=CC(C)N(c2ccccc2)C(=S)N1n1c(C)nc2ccccc2c1=O` (centres undefined), the values for the GI50 with NCI-H460, with SF-268 and with MCF7 were 0.2 µM, 0.03 µM and 0.7 µM, respectively. Moreover, the inhibition of growth at 50 µM in the test with Leishmania donovani [1] amounted to 48%.
Consider `Cc1nc2ccccc2c(=O)n1/N=C1\SCC(=O)N1c1ccccc1`, for which the GI50 in the test on NCI-H460 came to 30.6 µM; in the test on SF-268, 38.4 µM; in the test on Leishmania donovani [2], 12 µM; in the test on MCF7 it was 22 µM. Besides, the inhibition of growth at 50 µM with Leishmania donovani [1] turned out to be 44%.
For `Cc1nc2ccccc2c(=O)n1/N=c1\scc(N)n1-c1ccccc1`, the GI50 came out at 28 µM with NCI-H460, 22.5 µM in the test with SF-268, 10 µM with Leishmania donovani [2] and 36 µM with MCF7. For the same molecule, the inhibition of growth at 50 µM in the test on Leishmania donovani [1] amounted to 96%.
In the case of `CCOC(=O)CNn1c(C)nc2ccccc2c1=O`, the GI50 in the test with NCI-H460 is 22.6 µM; with SF-268 it was 26.8 µM; with Leishmania donovani [2] it was 10 µM; in the test with MCF7 it was 20.9 µM. In the test on Leishmania donovani [1], the inhibition of growth at 50 µM was determined as 44%.
For the molecule `Cc1nc2ccccc2c(=O)n1NCC(=O)NN`, the GI50 is 14.5 µM with NCI-H460, 16.7 µM with SF-268, 22 µM with Leishmania donovani [2] and 11.8 µM in the test with MCF7. Further, the inhibition of growth at 50 µM in the test with Leishmania donovani [1] amounted to 58%.
The like results for `Cc1nc2ccccc2c(=O)n1NCC(=O)NNc1ccccc1` were, in that order, 12.9 µM, 24.8 µM, 28 µM, 22.6 µM and 22%.
Consider `Cc1nc2ccccc2c(=O)n1Nc1cc2ccccc2oc1=O`, for which the GI50 with NCI-H460 was 17.3 µM; with SF-268, 22.3 µM; in the test on MCF7, 32 µM. Moreover, the inhibition of growth at 50 µM in the test with Leishmania donovani [1] is 70%.
With `Cc1nc2ccccc2c(=O)n1NCc1nc2ccccc2[nH]1`, the values for the GI50 in the test on NCI-H460, in the test with SF-268 and in the test on MCF7 were 22 µM, 31.5 µM and 20 µM, respectively. Besides, the inhibition of growth at 50 µM in the test on Leishmania donovani [1] amounted to 85%.
Regarding `CCOC(=O)c1c(N)cc(N)n1-n1c(C)nc2ccccc2c1=O`, the GI50 in the test with NCI-H460 was found to be 0.1 µM; in the test with SF-268 it was 0.9 µM; in the test with MCF7, 0.4 µM. Moreover, the inhibition of growth at 50 µM in the test on Leishmania donovani [1] was found to be 40%.
With `CCOC(=O)c1c(N)cc(O)n1-n1c(C)nc2ccccc2c1=O`, the GI50 with NCI-H460 was 0.9 µM; with SF-268, 11.5 µM; in the test with Leishmania donovani [2] it was 18 µM; with MCF7, 13.1 µM. Further, the inhibition of growth at 50 µM in the test with Leishmania donovani [1] amounted to 60%.
The like results for `Cc1nc2ccccc2c(=O)n1Nc1csc(N)n1` were, in that order, 0.2 µM, 0.4 µM, 22 µM, 0.01 µM and 72%.
For `Cc1nc2ccccc2c(=O)n1NC(=O)c1cc2ccccc2o1` the same measures were 12.1 µM, 22.3 µM, 14 µM, 10.9 µM and 28%.
Consider `C[C@@H]1[C@H](O)[C@@H](C)/C=C/C=C/C=C/C=C/C=C/C=C/C=C/[C@H](O[C@@H]2O[C@H](C)[C@@H](O)[C@H](N)[C@@H]2O)C[C@@H]2O[C@](O)(C[C@@H](O)C[C@@H](O)[C@H](O)CC[C@@H](O)C[C@@H](O)CC(=O)O[C@H]1C)C[C@H](O)[C@H]2C(=O)O` [AMPHOTERICIN B], for which the inhibition of growth at 1 µM with Leishmania donovani [3] was 98%.
Regarding `COc1cccc2c1C(=O)c1c(O)c3c(c(O)c1C2=O)C[C@@](O)(C(=O)CO)C[C@@H]3O[C@H]1C[C@H](N)[C@H](O)[C@H](C)O1` [DOXORUBICIN], the results for the GI50 in the test on NCI-H460, in the test with SF-268 and in the test on MCF7 were 0.09 µM, 0.09 µM and 0.04 µM, respectively.

For orientation: GI50 means the concentration at which growth is held to half of that of the control.
